One assay concerns the target CDK2 (human) (UniProt P24941). Nature of the assay: Enzyme Assay.
The next assay concerns the target ROCK2 (human) (UniProt O75116). Kind of assay: Enzyme Assay.

Sequence of ROCK2 (human) (O75116 whole entry, looked up): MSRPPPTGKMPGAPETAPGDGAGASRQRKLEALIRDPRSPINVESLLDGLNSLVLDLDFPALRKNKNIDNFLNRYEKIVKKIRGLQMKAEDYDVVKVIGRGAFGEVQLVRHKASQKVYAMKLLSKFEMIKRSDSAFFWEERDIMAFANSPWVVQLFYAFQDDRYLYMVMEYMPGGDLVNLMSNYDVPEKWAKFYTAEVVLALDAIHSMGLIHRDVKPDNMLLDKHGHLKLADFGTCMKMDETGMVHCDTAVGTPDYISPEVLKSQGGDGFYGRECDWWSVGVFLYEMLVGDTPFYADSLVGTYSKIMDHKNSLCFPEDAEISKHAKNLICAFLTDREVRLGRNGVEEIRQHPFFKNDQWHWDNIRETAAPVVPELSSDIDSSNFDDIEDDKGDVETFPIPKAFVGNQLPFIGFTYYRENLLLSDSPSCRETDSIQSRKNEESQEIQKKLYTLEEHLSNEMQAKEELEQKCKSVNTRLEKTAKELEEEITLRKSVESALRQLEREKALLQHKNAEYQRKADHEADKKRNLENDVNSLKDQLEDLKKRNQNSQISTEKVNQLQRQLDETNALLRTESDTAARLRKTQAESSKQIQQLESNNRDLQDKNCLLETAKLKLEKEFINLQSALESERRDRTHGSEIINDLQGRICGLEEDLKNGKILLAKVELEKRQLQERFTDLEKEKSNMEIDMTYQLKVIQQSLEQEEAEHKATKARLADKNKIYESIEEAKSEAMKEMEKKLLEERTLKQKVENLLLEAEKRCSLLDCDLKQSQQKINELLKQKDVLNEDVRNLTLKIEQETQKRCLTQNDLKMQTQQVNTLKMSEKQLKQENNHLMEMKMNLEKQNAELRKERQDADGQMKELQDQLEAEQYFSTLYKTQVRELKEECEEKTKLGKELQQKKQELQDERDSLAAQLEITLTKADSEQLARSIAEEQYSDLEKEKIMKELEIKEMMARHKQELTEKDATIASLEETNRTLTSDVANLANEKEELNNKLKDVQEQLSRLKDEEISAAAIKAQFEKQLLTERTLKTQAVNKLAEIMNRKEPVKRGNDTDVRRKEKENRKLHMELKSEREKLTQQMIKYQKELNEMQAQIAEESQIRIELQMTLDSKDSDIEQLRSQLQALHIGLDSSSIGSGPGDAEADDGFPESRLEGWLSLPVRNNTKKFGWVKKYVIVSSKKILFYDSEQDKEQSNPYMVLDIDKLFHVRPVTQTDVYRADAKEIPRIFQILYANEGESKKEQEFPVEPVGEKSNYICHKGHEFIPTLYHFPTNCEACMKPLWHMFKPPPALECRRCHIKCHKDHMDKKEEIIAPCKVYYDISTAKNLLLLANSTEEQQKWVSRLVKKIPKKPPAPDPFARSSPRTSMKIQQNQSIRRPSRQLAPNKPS

For the molecule `CCNC(=O)c1[nH]nc(-c2cc(Cl)c(O)cc2O)c1-c1ccc(OC)cc1`, the Ki (as a rule, a measure of affinity in units of concentration, obtained from inhibition or displacement) was determined as 6310 nM on CDK2 (human) and 2510 nM at ROCK2 (human).

With `COCCN(CCOC)c1cc(-c2c[nH]c3ncccc23)cc(Cl)n1`, the Ki came out at 2000 nM at CDK2 (human) and 39.8 nM on ROCK2 (human).

For `COCC(C)Nc1cc(-c2c[nH]c3ncccc23)cc(Cl)n1` (centres undefined), the results for the Ki on CDK2 (human) and on ROCK2 (human) were 158 nM and 7.94 nM, respectively.

In the case of `O=C(NCc1ccccc1)c1c[nH]n2c(=O)cc(-c3ccncc3)nc12`, the inhibition constant Ki on CDK2 (human) is 158 nM; at ROCK2 (human), greater than 7940 nM.

For `CN(Cc1ccccc1)c1cc(-c2c[nH]c3ncccc23)cc(Cl)n1`, the Ki at CDK2 (human) turned out to be 31.6 nM; on ROCK2 (human) it was 20 nM.

At ROCK2 (human), `Nc1ncnc2c1c(-c1cnc3[nH]ccc3c1)nn2C1CCCC1` returned a Ki of 39.8 nM.

For the molecule `NC(=O)c1ccc2c(ccn2-c2cccc(Cl)c2)c1`, the Ki on ROCK2 (human) worked out at 2510 nM.

For `CN(C)c1ccc(-c2c(-c3ccc4[nH]nc(N)c4c3)nnn2Cc2ccccc2)cc1`, the inhibition constant (Ki) is 126 nM at CDK2 (human) and 20 nM on ROCK2 (human).

As for `NC(=O)c1ccc(Nc2ncnc3[nH]cc(-c4ccccc4)c23)cc1`, the Ki came out at 501 nM at CDK2 (human) and 251 nM at ROCK2 (human).

For the molecule `CCOC(=O)c1cn(-c2ccc(O)cc2C)c2cc(-c3ccncc3)ccc2c1=O`, the inhibition constant Ki on CDK2 (human) was found to be 3980 nM; at ROCK2 (human), 31.6 nM.

As to `CN1CCN(c2nc(C3=C(c4c[nH]c5ccccc45)C(=O)NC3=O)c3ccccc3n2)CC1`, the Ki is 126 nM on CDK2 (human) and greater than 7940 nM at ROCK2 (human).

On ROCK2 (human), `CS(=O)(=O)N(Cc1ccc2[nH]c(=O)c3cccn3c2c1)C1CC1` gave a Ki greater than 7940 nM.

`Cc1cccc(CNc2cc(-c3c[nH]c4ncccc34)cc(Cl)n2)c1C`: the results for the Ki on CDK2 (human) and on ROCK2 (human) were 200 nM and 31.6 nM, respectively.

Consider `Nc1noc2cccc(-c3cccc(O)c3)c12`, for which the Ki on ROCK2 (human) was 251 nM.

For the molecule `O=C1c2ccccc2-c2n[nH]c3cccc1c23`, the Ki turned out to be 79.4 nM at CDK2 (human) and 3160 nM at ROCK2 (human).

For the molecule `Cc1cc(=O)n2[nH]cc(C(=O)NCc3ccccc3)c2n1`, at ROCK2 (human), the inhibitory constant (Ki) was found to be 2510 nM.

Regarding `COc1cc2c(cc1F)C(c1ccccc1Cl)=Nc1c(n[nH]c1C)N2`, the Ki at ROCK2 (human) was greater than 7940 nM.

For the molecule `COc1ccccc1C(=O)Nc1n[nH]c2ccc(-c3cn(Cc4ccccc4)nn3)cc12`, the inhibition constant Ki on CDK2 (human) is 251 nM; on ROCK2 (human), greater than 7940 nM.

Take `CN(C)CCCOc1cc(-c2ccncc2)cc2[nH]nc(N)c12`: the Ki was found to be 3160 nM on CDK2 (human) and 251 nM at ROCK2 (human).

On to `CCCCNc1cc(-c2c[nH]c3ncccc23)ncn1`, for which the inhibition constant Ki at CDK2 (human) stood at 200 nM; at ROCK2 (human) it was 20 nM.

In the case of `NCCCn1cc(-c2cc(-c3cc4ccccc4s3)c3[nH]ncc3c2)c2nc(N)ncc21`, the Ki at CDK2 (human) was determined as 12.6 nM; at ROCK2 (human), 63.1 nM.

As for `c1cnc2[nH]cc(-c3ccnc(NCC4CCCCC4)n3)c2c1`, the Ki at CDK2 (human) was 3.98 nM; on ROCK2 (human), 6.31 nM.

At ROCK2 (human), `Cc1cc(Nc2cc(N3CCN(C)CC3)nc(Sc3ccc(NC(=O)C4CC4)cc3)n2)[nH]n1` displayed a Ki greater than 3980 nM.

Take `Cc1ccccc1-c1c(-c2ccc3[nH]nc(C)c3c2)nnn1Cc1ccccc1`: the inhibitory constant (Ki) at CDK2 (human) is 3.98 nM.

At ROCK2 (human), `O=c1cc(-c2cccc(F)c2)[nH]c2c(-c3ccc(F)cc3)cnn12` gave a Ki greater than 7940 nM.

Turning to `CC(C)(C)Oc1cc(-c2ccncc2)cc2[nH]nc(N)c12`, the inhibitory constant (Ki) at CDK2 (human) was 126 nM; on ROCK2 (human), 50.1 nM.

`O=C(O)c1ccccc1Nc1ccnc(NCc2cccc(O)c2)n1`: on ROCK2 (human), the Ki was greater than 7940 nM.

Molecule `O=C1NC(=O)C(c2c[nH]c3ccccc23)=C1c1nc(N2CCNCC2)nc2ccccc12` returned a Ki at ROCK2 (human) greater than 3980 nM.

As for `CCCCNc1c(-c2ccc3[nH]ncc3c2)nc2ncccn12`, the results for the Ki at CDK2 (human) and on ROCK2 (human) were 398 nM and 63.1 nM, respectively.

In the case of `Cc1ccc(Nc2nccc(Nc3ccccc3C(=O)O)n2)cc1F`, the Ki on CDK2 (human) was 398 nM; on ROCK2 (human) it was greater than 7940 nM.

`CN(c1ccccc1-c1ccc2c(c1)Nc1ccccc1NC2=O)S(C)(=O)=O`: the Ki on CDK2 (human) was determined as 2000 nM.

With `Clc1cc(-c2c[nH]c3ncccc23)nc(NC2CCCCC2)n1`, the Ki on CDK2 (human) is 200 nM; on ROCK2 (human), 126 nM.

Take `c1ccc(Cn2cc(-c3ccc4[nH]nc(-c5ccccc5)c4c3)nn2)cc1`: the Ki stood at 100 nM at CDK2 (human) and 63.1 nM at ROCK2 (human).

Take `NC(=O)c1cc(-c2ccnc(N)n2)[nH]c1-c1ccc(Cl)cc1Cl`: the Ki on ROCK2 (human) is 316 nM.

In turn, `c1ccc(Cn2nnc(-c3ccc4[nH]ncc4c3)c2-c2ccccc2)cc1` displayed a Ki at CDK2 (human) of 63.1 nM.

`NC1CCCCC1Nc1nccc(Nc2ccccc2C(=O)O)n1` (centres undefined) registered an inhibitory constant (Ki) at ROCK2 (human) greater than 7940 nM.

Take `Fc1ccc2c(c1)-c1n[nH]cc1CS2`: the Ki on CDK2 (human) was found to be 20000 nM.

The molecule `Cn1cc(-c2ccccc2)c2nc(-c3ccncc3)cc(=O)n21` showed a Ki at ROCK2 (human) of 3160 nM.

For the molecule `OCCNc1cc(-c2c[nH]c3ncccc23)cc(Cl)n1`, the figures for the Ki at CDK2 (human) and at ROCK2 (human) were 316 nM and 20 nM, respectively.

The molecule `NC(=O)c1ccccc1Nc1nc(Nc2ccccc2)ncc1C(F)(F)F` yielded a Ki on ROCK2 (human) of 501 nM.

Turning to `O=C(Nc1cccc(C(F)(F)F)n1)Nc1ccnc2ccc(F)cc12`, the Ki at ROCK2 (human) is greater than 3980 nM.

On ROCK2 (human), `NC(=O)c1ccc(-c2nc(-c3ccc4c(c3)OCO4)c(-c3ccccn3)[nH]2)cc1` showed a Ki greater than 3980 nM.

(Values after the Kinase Knowledgebase extract (Sharma et al. 2016).)
